Data: patent publication US9206130B2, “Quinoline derivatives as AXL kinase inhibitors” (Max-Planck-Gesellschaft zur Förderung der Wissenschaften …, priority 2008, dated 2015)

Experiments:
[1] = target: T1, wild type AXL (wtAXL) receptor tyrosine kinase (Homo sapiens, UniProt P30530); assay: NIH-3T3-AXL cellular tyrosine kinase assay (inhibition of AXL phosphorylation); format: cell-based; settings: AXL phosphorylation in NIH-3T3-AXL (clone 22) cells, serum-depleted, 2 h with compound, immunoprecipitation / anti-phosphotyrosine blot
T1 construct: WtAXL cDNA was cloned into vector pLXSN(ESK) and transfected into Phoenix E packaging cells; expressed in transfected cells; host or cells: NIH3T3 N7 mouse fibroblasts, retrovirally infected (clone 22)
T1 sequence (P30530 26-894): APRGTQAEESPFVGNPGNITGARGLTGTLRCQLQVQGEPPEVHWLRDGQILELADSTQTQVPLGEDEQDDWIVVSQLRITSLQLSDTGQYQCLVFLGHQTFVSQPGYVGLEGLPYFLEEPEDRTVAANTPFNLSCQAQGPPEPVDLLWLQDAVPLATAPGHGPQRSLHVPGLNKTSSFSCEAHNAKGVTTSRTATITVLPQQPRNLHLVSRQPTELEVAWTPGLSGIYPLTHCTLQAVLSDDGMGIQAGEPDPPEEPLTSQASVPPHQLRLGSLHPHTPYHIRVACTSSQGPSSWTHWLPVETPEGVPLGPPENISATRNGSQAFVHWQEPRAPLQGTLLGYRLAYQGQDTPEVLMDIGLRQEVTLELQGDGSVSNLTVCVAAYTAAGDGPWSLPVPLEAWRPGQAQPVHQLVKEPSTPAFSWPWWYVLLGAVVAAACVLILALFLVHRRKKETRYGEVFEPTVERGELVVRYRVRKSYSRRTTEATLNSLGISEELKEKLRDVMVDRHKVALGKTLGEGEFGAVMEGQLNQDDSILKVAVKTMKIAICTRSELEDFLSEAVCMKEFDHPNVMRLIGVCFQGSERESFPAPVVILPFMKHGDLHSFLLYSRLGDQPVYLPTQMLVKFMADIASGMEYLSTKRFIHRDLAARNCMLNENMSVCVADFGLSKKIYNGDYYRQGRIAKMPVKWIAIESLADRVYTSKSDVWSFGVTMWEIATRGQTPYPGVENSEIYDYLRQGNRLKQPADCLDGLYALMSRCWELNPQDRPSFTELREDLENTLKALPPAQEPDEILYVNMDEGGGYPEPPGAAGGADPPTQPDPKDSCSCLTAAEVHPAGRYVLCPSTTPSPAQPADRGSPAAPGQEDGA
Outline: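 NIH3T3 clones stably expressing human wtAXL (puromycin-selected) were exposed to serially diluted compounds for 2 h. AXL was immunoprecipitated from lysates with anti-AXL antibody, and phosphorylation detected by anti-phosphotyrosine (4G10) western blot with ECL.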

Compound	melting point	IC50 [1]
COc1cc2nccc(Oc3ccc(NS(=O)(=O)c4ccccc4OC(F)(F)F)cc3C)c2cc1OC [Example A129, N-[4-(6,7-Dimethoxy-quinolin-4-yloxy)-3-methyl-phenyl]-2-trifluoromethoxy-benzenesulfonamide]	207 to 209 °C	> 3 µM
COc1cc2nccc(Oc3ccc(NS(=O)(=O)c4ccc(OC)c5ccccc45)cc3C)c2cc1OC [Example A130, 4-Methoxy-naphthalene-1-sulfonic acid [4-(6,7-dimethoxy-quinolin-4-yloxy)-3-methyl-phenyl]-amide]	233 to 235 °C	> 10 µM
COc1cc2nccc(Oc3ccc(NS(=O)(=O)c4cc(F)ccc4F)cc3C)c2cc1OC [Example A131, N-[4-(6,7-Dimethoxy-quinolin-4-yloxy)-3-methyl-phenyl]-2,5-difluoro-benzenesulfonamide]	239 to 240 °C	1.68 µM
COc1cc2nccc(Oc3ccc(NS(=O)(=O)c4cccc(-c5ncccn5)c4)cc3C)c2cc1OC [Example A132, N-[4-(6,7-Dimethoxy-quinolin-4-yloxy)-3-methyl-phenyl]-3-pyrimidin-2-yl-benzenesulfonamide]	188 to 190 °C	> 10 µM
COc1cc2nccc(Oc3ccc(NS(=O)(=O)c4ccc(OC)c5ccccc45)cc3)c2cc1OC [Example A133, 4-Methoxy-naphthalene-1-sulfonic acid [4-(6,7-dimethoxy-quinolin-4-yloxy)-phenyl]-amide]	240 to 242 °C	> 10 µM
COc1cc2nccc(Oc3ccc(NS(=O)(=O)c4ccc(Cl)cc4F)cc3)c2cc1OC [Example A134, 4-Chloro-N-[4-(6,7-dimethoxy-quinolin-4-yloxy)-phenyl]-2-fluoro-benzenesulfonamide]	218 to 220 °C	> 1 µM
COc1cc2nccc(Oc3ccc(NS(=O)(=O)c4ccc(OC)c5ccccc45)cc3F)c2cc1OC [Example A135, 4-Methoxy-naphthalene-1-sulfonic acid [4-(6,7-dimethoxy-quinolin-4-yloxy)-3-fluoro-phenyl]-amide]	145 to 147 °C	0.82 µM
COc1cc2nccc(Oc3ccc(NS(=O)(=O)c4ccc(-c5ccccc5)cc4)c(F)c3)c2cc1OC [Example A136, Biphenyl-4-sulfonic acid [4-(6,7-dimethoxy-quinolin-4-yloxy)-2-fluoro-phenyl]-amide]	199 to 201 °C	> 10 µM
COc1cc2nccc(Oc3ccc(NS(=O)(=O)c4ccc5c(c4)CC(=O)N5C)c(F)c3)c2cc1OC [Example A137, 1-Methyl-2-oxo-2,3-dihydro-1H-indole-5-sulfonic acid [4-(6,7-dimethoxy-quinolin-4-yloxy)-2-fluoro-phenyl]-amide]	195 to 197 °C	> 10 µM
COc1cc2nccc(Oc3ccc(NS(=O)(=O)c4cccc(-c5ccccc5)c4)cc3OC)c2cc1OC [Example A138, Biphenyl-3-sulfonic acid [4-(6,7-dimethoxy-quinolin-4-yloxy)-3-methoxy-phenyl]-amide]	108 to 110 °C	> 10 µM
COc1cc2nccc(Oc3ccc(NS(=O)(=O)c4cc(F)ccc4F)cc3OC)c2cc1OC [Example A139, N-[4-(6,7-Dimethoxy-quinolin-4-yloxy)-3-methoxy-phenyl]-2,5-difluoro-benzenesulfonamide]	222 to 224 °C	2.2 µM
COc1cc2nccc(Oc3ccc(NS(=O)(=O)c4cccc5ccccc45)cc3OC)c2cc1OC [Example A140, Naphthalene-1-sulfonic acid [4-(6,7-dimethoxy-quinolin-4-yloxy)-3-methoxy-phenyl]-amide]	124 to 126 °C	> 10 µM
COc1cc2nccc(Oc3ccc(NS(=O)(=O)c4ccc(-c5ccccc5)cc4)cc3OC)c2cc1OC [Example A142, Biphenyl-4-sulfonic acid [4-(6,7-dimethoxy-quinolin-4-yloxy)-3-methoxy-phenyl]-amide]	128 to 131 °C	> 10 µM
COc1cc2nccc(Oc3ccc(NS(=O)(=O)c4cccc(-c5ncccn5)c4)cc3OC)c2cc1OC [Example A143, N-[4-(6,7-Dimethoxy-quinolin-4-yloxy)-3-methoxy-phenyl]-3-pyrimidin-2-yl-benzenesulfonamide]	135 to 137 °C	> 10 µM
COc1cc2nccc(Oc3ccc(NS(=O)(=O)c4csc5ccccc45)cc3OC)c2cc1OC [Example A144, Benzo[b]thiophene-3-sulfonic acid [4-(6,7-dimethoxy-quinolin-4-yloxy)-3-methoxy-phenyl]-amide]	144 to 146 °C	> 10 µM
COc1cc2nccc(Oc3ccc(NS(=O)(=O)c4ccc5c(c4)CC(=O)N5C)cc3OC)c2cc1OC [Example A145, 1-Methyl-2-oxo-2,3-dihydro-1H-indole-5-sulfonic acid [4-(6,7-dimethoxy-quinolin-4-yloxy)-3-methoxy-phenyl]-amide]	150 to 152 °C	> 10 µM
COc1cc2nccc(Oc3ccc(NS(=O)(=O)c4ccc(Br)cc4OC(F)(F)F)cc3F)c2cc1OC [Example A146, 4-Bromo-N-[4-(6,7-dimethoxy-quinolin-4-yloxy)-3-fluoro-phenyl]-2-trifluoromethoxy-benzenesulfonamide]	226 to 228 °C	0.89 µM
COc1cc2nccc(Oc3ccc(NS(=O)(=O)c4ccc(Br)cc4OC(F)(F)F)c(F)c3)c2cc1OC [Example A147, 4-Bromo-N-[4-(6,7-dimethoxy-quinolin-4-yloxy)-2-fluoro-phenyl]-2-trifluoromethoxy-benzenesulfonamide]	227 to 229 °C	> 3 µM
COc1cc2nccc(Oc3ccc(NS(=O)(=O)c4ccc(Br)cc4OC(F)(F)F)cc3OC)c2cc1OC [Example A148, 4-Bromo-N-[4-(6,7-dimethoxy-quinolin-4-yloxy)-3-methoxy-phenyl]-2-trifluoromethoxy-benzenesulfonamide]	176 to 177 °C	> 10 µM
COc1cc2nccc(Oc3ccc(NS(=O)(=O)c4ccc(Br)cc4OC(F)(F)F)cc3)c2cc1OC [Example A149, 4-Bromo-N-[4-(6,7-dimethoxy-quinolin-4-yloxy)-phenyl]-2-trifluoromethoxy-benzenesulfonamide]	237 to 239 °C	> 3 µM
COc1cc2nccc(Oc3ccc(NS(=O)(=O)c4ccc(OC)c5ccccc45)c(C)c3)c2cc1OC [Example A150, 4-Methoxy-naphthalene-1-sulfonic acid [4-(6,7-dimethoxy-quinolin-4-yloxy)-2-methyl-phenyl]-amide]	216 to 217 °C	> 10 µM
COc1cc2nccc(Oc3ccc(NS(=O)(=O)c4cc(F)ccc4F)c(C)c3)c2cc1OC [Example A151, N-[4-(6,7-Dimethoxy-quinolin-4-yloxy)-2-methyl-phenyl]-2,5-difluoro-benzenesulfonamide]	259 to 260 °C	> 10 µM
COc1cc2nccc(Oc3ccc(NS(=O)(=O)c4ccc(Br)c(Cl)c4)c(C)c3)c2cc1OC [Example A152, 4-Bromo-3-chloro-N-[4-(6,7-dimethoxy-quinolin-4-yloxy)-2-methyl-phenyl]-benzenesulfonamide]	212 to 213 °C	> 10 µM
COc1cc2nccc(Oc3ccc(NS(=O)(=O)c4ccc(Cl)cc4F)c(C)c3)c2cc1OC [Example A153, 4-Chloro-N-[4-(6,7-dimethoxy-quinolin-4-yloxy)-2-methyl-phenyl]-2-fluoro-benzenesulfonamide]	248 to 250 °C	> 10 µM
COc1cc(S(=O)(=O)Nc2ccc(Oc3ccnc4cc(OC)c(OC)cc34)cc2C)ccc1F [Example A154, N-[4-(6,7-Dimethoxy-quinolin-4-yloxy)-2-methyl-phenyl]-4-fluoro-3-methoxy-benzenesulfonamide]	228 to 229 °C	> 10 µM
COc1cc2nccc(Oc3ccc(NS(=O)(=O)c4cc(Cl)c(O)c(Cl)c4)cc3)c2cc1OC [Example A155, 3,5-Dichloro-N-[4-(6,7-dimethoxy-quinolin-4-yloxy)-phenyl]-4-hydroxy-benzenesulfonamide]	> 260 °C	> 3 µM
